Assay results: US20230114728A1 (Venatorx Pharmaceuticals, Inc., priority 2019, published 2023)
In brackets after ≈: the same amount, converted by molar mass. Like-named read-outs stand apart in the source and are kept apart here.

Legend:
Format in all cases: cell-based
[1] = system: N. gonorrhoeae ATCC 49226; assay: Liquid broth MIC in Fastidious broth; details: Neisseria gonorrhoeae, ATCC49226, Fastidious broth
In short: (§1)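 Colonies were swabbed from chocolate agar after 24 h growth and standardised by optical density at 600 nm. Compounds were serially diluted twofold in Fastidious broth, and bacteria added to give 5×10^5 CFU/mL. After about 24 h at 36 °C in 5% CO2, the lowest concentration allowing under 10% growth was taken as MIC.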

N. gonorrhoeae FA1090 = assay: Liquid broth MIC in Fastidious broth; details: Neisseria gonorrhoeae, Fastidious broth
In short: as §1

N. gonorrhoeae H041 = assay: Liquid broth MIC in Fastidious broth; details: Neisseria gonorrhoeae
In short: (§2)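 Broth microdilution in Fastidious broth with 2-fold compound series; inoculum from 24 h chocolate agar colonies, 5×10^5 CFU/mL start. Incubated ~24 hours at 36° C, 5% CO2. MIC read visually as lowest concentration giving <10% growth versus full-growth wells; strains carry mosaic PBP2.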

N. gonorrhoeae WHO G = assay: Liquid broth MIC in Fastidious broth; details: Neisseria gonorrhoeae, Fastidious broth
In short: as §1

N. gonorrhoeae WHO K = assay: Liquid broth MIC in Fastidious broth; details: Neisseria gonorrhoeae
In short: as §2

N. gonorrhoeae WHO L = assay: Liquid broth MIC in Fastidious broth; details: Neisseria gonorrhoeae, Fastidious broth
In short: as §1

N. gonorrhoeae WHO Q = assay: Liquid broth MIC in Fastidious broth; details: Neisseria gonorrhoeae, read-out: Minimum Inhibitory Concentration, WHO Q
In short: as §2

N. gonorrhoeae WHO Z = assay: Liquid broth MIC in Fastidious broth; details: Neisseria gonorrhoeae, read-out: Minimum Inhibitory Concentration, WHO Z
In short: as §2

E. coli 901C = assay: Broth microdilution MIC in CAMHB; details: Escherichia coli; E. coli 901C (hyper-permeable); MHB; read-out: Minimum Inhibitory Concentration, E. coli 901C
In short: (§3)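 Per CLSI broth microdilution, colonies were grown 3-5 h at 37° C in cation-adjusted Mueller Hinton broth, then diluted to a starting inoculum of 2-8×10^5 CFU/mL against 2-fold serial compound dilutions. Plates were incubated 16-20 h at 37° C, and MIC was read visually as the lowest concentration with no growth.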

[2] = system: K. pneumoniae UMM producing SHV-5 and KPC-2; assay: Broth microdilution MIC in CAMHB; details: Klebsiella pneumoniae, read-out: Minimum Inhibitory Concentration, K. pneumoniae UMM
In short: as §3

[3] = N. gonorrhoeae strain ATCC 49226, read-out: Minimum Inhibitory Concentration, N. gonorrhoeae ATCC 49226
[4] = N. gonorrhoeae strain FA1090, read-out: Minimum Inhibitory Concentration, N. gonorrhoeae FA1090
[5] = H041, read-out: Minimum Inhibitory Concentration, N. gonorrhoeae H041
[6] = N. gonorrhoeae strain WHO G, read-out: Minimum Inhibitory Concentration, N. gonorrhoeae WHO G
[7] = read-out: Minimum Inhibitory Concentration, N. gonorrhoeae WHO K
[8] = N. gonorrhoeae strain WHO L, read-out: Minimum Inhibitory Concentration, N. gonorrhoeae WHO L

| SMILES | MIC (E. coli 901C) [µg/mL] | MIC [2] [µg/mL] | MIC [1, 3] [µg/mL] | MIC (N. gonorrhoeae FA1090; [4]) [µg/mL] | MIC (N. gonorrhoeae H041; [5]) [µg/mL] | MIC (N. gonorrhoeae WHO G; [6]) [µg/mL] | MIC (N. gonorrhoeae WHO K; [7]) [µg/mL] | MIC (N. gonorrhoeae WHO L; [8]) [µg/mL] | other results |
| --- | --- | --- | --- | --- | --- | --- | --- | --- | --- |
| CCN1CCN(C(=O)N[C@@H](C(=O)N[C@H]2Cc3ccc(F)c(C(=O)O)c3OB2O)c2c(Cl)cc(O)c(O)c2F)C(=O)C1=O (single isomer, unassigned) [Example 207] | – | – | – | – | – | – | – | – | MIC ([1]; N. gonorrhoeae ATCC 49226, read-out: Minimum Inhibitory Concentration, ATCC 49226): 16 to 32 µg/mL (≈ 26.2 to 52.4 µM); MIC (N. gonorrhoeae FA1090; N. gonorrhoeae FA1090, read-out: Minimum Inhibitory Concentration, FA1090): 4 to 8 µg/mL (≈ 6.55 to 13.1 µM); MIC (N. gonorrhoeae H041; H041, read-out: Minimum Inhibitory Concentration, H041): > 64 µg/mL; MIC (N. gonorrhoeae WHO G; N. gonorrhoeae WHO G, read-out: Minimum Inhibitory Concentration, WHO G): 16 to 32 µg/mL (≈ 26.2 to 52.4 µM); MIC (N. gonorrhoeae WHO K; read-out: Minimum Inhibitory Concentration, WHO K): > 64 µg/mL; MIC (N. gonorrhoeae WHO L; N. gonorrhoeae WHO L, read-out: Minimum Inhibitory Concentration, WHO L): > 64 µg/mL; MIC (N. gonorrhoeae WHO Q): > 64 µg/mL; MIC (N. gonorrhoeae WHO Z): 16 to 32 µg/mL (≈ 26.2 to 52.4 µM) |
| O=C(NCCCN1CCN(C(=O)NC(C(=O)N[C@H]2Cc3cccc(C(=O)O)c3OB2O)c2ncc(O)cc2F)C(=O)C1=O)c1ccc(O)c(O)c1Cl (stereo partly drawn) [Example 1, (3R)-3-(2-(4-(3-(2-chloro-3,4-dihydroxybenzamido)propyl)-2,3-dioxopiperazine-1-carboxamido)-2-(3-fluoro-5-hydroxypyridin-2-yl)acetamido)-2-hydroxy-3,4-dihydro-2H-benzo[e][1,2]oxaborinine-8-carboxylic acid] | 8 to 16 (≈ 10.8 to 21.5 µM) | 8 to 16 (≈ 10.8 to 21.5 µM) | – | – | – | – | – | – | – |
| C[C@H]1CN(CCNC(=O)c2ccc(O)c(O)c2Cl)C(=O)C(=O)N1C(=O)NC(C(=O)N[C@H]1Cc2cccc(C(=O)O)c2OB1O)c1ncc(O)cc1F (stereo partly drawn) [Example 2, (3R)-3-(2-((S)-4-(2-(2-chloro-3,4-dihydroxybenzamido)ethyl)-6-methyl-2,3-dioxopiperazine-1-carboxamido)-2-(3-fluoro-5-hydroxypyridin-2-yl)acetamido)-2-hydroxy-3,4-dihydro-2H-benzo[e][1,2]oxaborinine-8-carboxylic acid] | 0.5 to 1 (≈ 0.673 to 1.35 µM) | 2 to 4 (≈ 2.69 to 5.38 µM) | > 64 | 4 to 8 (≈ 5.38 to 10.8 µM) | > 64 | > 64 | > 64 | > 64 | – |
| O=C(NCCCN1CCN(C(=O)NC(C(=O)N[C@H]2Cc3ccc(F)c(C(=O)O)c3OB2O)c2ncc(O)cc2F)C(=O)C1=O)c1ccc(O)c(O)c1Cl (stereo partly drawn) [Example 3, (3R)-3-(2-(4-(3-(2-chloro-3,4-dihydroxybenzamido)propyl)-2,3-dioxopiperazine-1-carboxamido)-2-(3-fluoro-5-hydroxypyridin-2-yl)acetamido)-7-fluoro-2-hydroxy-3,4-dihydro-2H-benzo[e][1,2]oxaborinine-8-carboxylic acid] | 8 to 16 (≈ 10.5 to 21 µM) | 32 to 64 (≈ 42.1 to 84.1 µM) | – | – | – | – | – | – | – |
| Nc1nc(C(NC(=O)N2CCN(CCNC(=O)c3ccc(O)c(O)c3Cl)C(=O)C2=O)C(=O)N[C@H]2Cc3ccc(F)c(C(=O)O)c3OB2O)c(F)s1 (stereo partly drawn) [Example 4, (3R)-3-(2-(2-amino-5-fluorothiazol-4-yl)-2-(4-(2-(2-chloro-3,4-dihydroxybenzamido)ethyl)-2,3-dioxopiperazine-1-carboxamido)acetamido)-7-fluoro-2-hydroxy-3,4-dihydro-2H-benzo[e][1,2]oxaborinine-8-carboxylic acid] | – | – | 16 to 32 (≈ 21.3 to 42.6 µM) | 4 to 8 (≈ 5.32 to 10.6 µM) | > 64 | 4 to 8 (≈ 5.32 to 10.6 µM) | > 64 | > 64 | – |
| O=C(NCCN1CCN(C(=O)NC(C(=O)N[C@H]2Cc3ccc(F)c(C(=O)O)c3OB2O)c2ncc(O)cc2F)C(=O)C1=O)c1c(F)cc(O)c(O)c1Cl (stereo partly drawn) [Example 5, (3R)-3-(2-(4-(2-(2-chloro-6-fluoro-3,4-dihydroxybenzamido)ethyl)-2,3-dioxopiperazine-1-carboxamido)-2-(3-fluoro-5-hydroxypyridin-2-yl)acetamido)-7-fluoro-2-hydroxy-3,4-dihydro-2H-benzo[e][1,2]oxaborinine-8-carboxylic acid] | – | – | > 64 | 4 to 8 (≈ 5.23 to 10.5 µM) | > 64 | 16 to 32 (≈ 20.9 to 41.8 µM) | > 64 | > 64 | – |
